Two compounds from article PMC8760490, “Discovery of novel furanylbenzamide inhibitors that target oncogenic tyrosine phosphatase SHP2 in leukemia cells” (The Journal of Biological Chemistry, 2021) can be followed below.

Test [1] has as its target T1, SHP2-E76K (Homo sapiens, UniProt Q06124, E76K).
T1 construct: Recombinant human full-length SHP2 (1–594) WT and E76K mutants; made in house
T1 sequence (Q06124 1-593 E76K): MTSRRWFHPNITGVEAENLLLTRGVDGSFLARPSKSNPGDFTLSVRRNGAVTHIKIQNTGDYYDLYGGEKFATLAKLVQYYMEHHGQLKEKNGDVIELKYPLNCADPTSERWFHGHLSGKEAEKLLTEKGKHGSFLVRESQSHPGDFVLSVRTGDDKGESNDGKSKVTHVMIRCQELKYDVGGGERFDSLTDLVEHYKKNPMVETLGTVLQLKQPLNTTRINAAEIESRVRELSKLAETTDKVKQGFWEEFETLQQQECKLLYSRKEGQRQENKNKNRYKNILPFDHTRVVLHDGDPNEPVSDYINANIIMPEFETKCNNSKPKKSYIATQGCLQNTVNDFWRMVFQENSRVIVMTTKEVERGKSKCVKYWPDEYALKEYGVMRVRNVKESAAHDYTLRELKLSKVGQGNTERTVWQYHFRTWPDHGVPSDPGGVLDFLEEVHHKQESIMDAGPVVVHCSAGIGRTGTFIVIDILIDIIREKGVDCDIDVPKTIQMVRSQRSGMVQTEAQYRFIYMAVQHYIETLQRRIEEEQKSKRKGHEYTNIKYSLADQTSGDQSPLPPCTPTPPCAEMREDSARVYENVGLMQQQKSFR
The test is described as follows: Time-dependent inhibition (preincubation 1-60 min). As to conditions: preincubation 1, 5, 10, 20 or 60 min with SHP2-E76K. The class given is biochemical. The procedure: (§1) PTPs contain a highly nucleophilic cysteine that is essential for catalytic activity but is susceptible to oxidation and covalent modifications, which abrogate its nucleophilic function and phosphatase activity ([26]). Because the methylenebenzothiophenone moiety of our inhibitors could potentially act as a Michael acceptor and thus covalently bind to the catalytic cysteine, we tested whether the observed inhibition of SHP2 was dependent on the preincubation time of inhibitor and enzyme. An irreversible covalent inhibitor may show time-dependent inhibition, with increased potency at longer incubation times. Conversely, the potency of a noncovalent inhibitor is expected to be insensitive to the time it is incubated with the enzyme. To test for time-dependent inhibition, SBI-2130 at ten different concentrations was preincubated with SHP2-E76K for 1, 5, 10, 20, or 60 min, before the DiFMUP substrate was added to the reaction mixture and initial rates were recorded (Fig. 3C). […] In addition, we used mass spectrometry to test whether inhibitor:protein adducts are being formed. Specifically, we incubated SHP2cat (5 μM) with SBI-4668 (100 μM) in assay buffer for various times (1, 5, 20, and 60 min) before trypsin proteolysis and subsequent mass spectrometry analysis. […] Finally, we performed a jump-dilution experiment to test for irreversible inhibition of SHP2. […]

Test [2] has as its target T2, SHP2cat (Homo sapiens, UniProt Q06124).
T2 construct: the SHP2 catalytic domain (SHP2cat; residues 248–527); made in house
T2 sequence (Q06124 248-527): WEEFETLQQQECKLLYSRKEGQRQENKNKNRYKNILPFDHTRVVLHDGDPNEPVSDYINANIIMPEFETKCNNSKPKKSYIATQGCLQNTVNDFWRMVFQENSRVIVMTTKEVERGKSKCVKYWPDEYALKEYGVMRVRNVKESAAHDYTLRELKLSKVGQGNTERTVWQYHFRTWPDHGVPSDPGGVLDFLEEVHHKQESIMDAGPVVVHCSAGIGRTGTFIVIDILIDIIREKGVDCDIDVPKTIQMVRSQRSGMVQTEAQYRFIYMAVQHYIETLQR
As to the kind of experiment: Jump-dilution inhibition assay. Format: biochemical. As to conditions: 10× preincubation 10 min, 10× jump dilution. The method, then: PTPs contain a highly nucleophilic cysteine that is essential for catalytic activity but is susceptible to oxidation and covalent modifications, which abrogate its nucleophilic function and phosphatase activity ([26]). Because the methylenebenzothiophenone moiety of our inhibitors could potentially act as a Michael acceptor and thus covalently bind to the catalytic cysteine, we tested whether the observed inhibition of SHP2 was dependent on the preincubation time of inhibitor and enzyme. An irreversible covalent inhibitor may show time-dependent inhibition, with increased potency at longer incubation times. […] To test for time-dependent inhibition, SBI-2130 at ten different concentrations was preincubated with SHP2-E76K for 1, 5, 10, 20, or 60 min, before the DiFMUP substrate was added to the reaction mixture and initial rates were recorded (Fig. 3C). […]
SBI-2130 was tested for reversibility of inhibition in a jump-dilution experiment using SHP2cat. […] The enzyme reaction was started by the addition of 5 μl of DiFMUP working solution (100 μM in 50 mM Bis–Tris, pH 6.0, 50 mM NaCl, 0.5 mM EDTA, and 0.01% Tween-20), and fluorescence intensity was measured in kinetic mode (every minute for 10 min) using a Tecan Spark Multimode Microplate Reader as described previously. […] The initial rates were determined from the linear progression curves of the SHP2cat reaction. […]

The target in test [3] is T2, SHP2cat. As to the kind of experiment: Mass spectrometry test for inhibitor:protein adducts. The following applies: SHP2cat 5 μM, inhibitor 100 μM, 1-60 min. The procedure:
as §1

“Also recorded” adds a separate entry of the source.

Consider `Nc1ccc(NC(=O)c2cc(-c3ccc(/C=C4\Sc5ccccc5C4=O)o3)ccc2O)cc1` [SBI-2130, (Z)-N-(4-Aminophenyl)-2-hydroxy-5-(5-((3-oxobenzo[b]thiophen-2(3H)-ylidene)methyl)furan-2-yl)benzamide], for which, in test [1], the time-dependent inhibition result was “No time-dependent inhibition; also recorded: not time dependent”. For the same compound, the “reversibility: IC50 curves jump dilution vs regular dose–response” value in test [2] is “reversible inhibitor; also recorded: practically identical”.
On to `O=C(Nc1ccccc1)c1cc(-c2ccc(/C=C3\Sc4ccccc4C3=O)o2)ccc1O` [SBI-4668, (Z)-2-Hydroxy-5-(5-((3-oxobenzo[b]thiophen-2(3H)-ylidene)methyl)furan-2-yl)-N-phenylbenzamide], for which the “inhibitor:protein adduct formation (mass spectrometry)” value in test [3] is “no adduct formation”.
